Test results reported in US20180099931A1 (AbbVie S.à.r.l., priority 2016, published 2018).
Read-outs that look alike come from different tables or passages of the source.

Target: T1, F508delCFTR (Homo sapiens, UniProt P13569, DEL508-508)
T1 construct: expressed in transfected cells; host or cells: CFBE41o- human lung-derived epithelial cells (CFBE4lo-F508delCFTR-HRP), doxycycline-inducible
Experiment: Cell Surface Expression-Horse Radish Peroxidase (CSE-HRP) Assay;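 for Maximum % activity (with co-corrector): co-corrector and positive control are both the same reference corrector at 2 µM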;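 for Maximum % activity (without co-corrector): percent of the 2 µM on-plate positive control corrector response above DMSO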
Type: cell-based
Conditions: for Maximum % activity (with co-corrector) / Emax: maximum at any tested concentration, normalized to on-plate positive control; for Emax: read-out: Maximum % activity (without co-corrector)

[1] = CSE-HRP, test compound without co-corrector, read-out: EC50 (without co-corrector)
[2] = CSE-HRP, with co-corrector (2 μM of 3-[(2R,4R)-4-({[1-(2,2-difluoro-1,3-benzodioxol-5-yl)cyclopropyl]carbonyl}amino)-7-methoxy-3,4-dihydro-2H-chromen-2-yl]benzoic acid), read-out: EC50 (with co-corrector)
[3] = CSE-HRP, with co-corrector (2 μM)
[4] = test compound without co-corrector
[5] = test compound without co-corrector, read-out: EC50 (without co-corrector)
[6] = with co-corrector (2 μM of 3-[(2R,4R)-4-({[1-(2,2-difluoro-1,3-benzodioxol-5-yl)cyclopropyl]carbonyl}amino)-7-methoxy-3,4-dihydro-2H-chromen-2-yl]benzoic acid), read-out: EC50 (with co-corrector)

T1 sequence (P13569 with tags, fused parts or gaps DEL508-508): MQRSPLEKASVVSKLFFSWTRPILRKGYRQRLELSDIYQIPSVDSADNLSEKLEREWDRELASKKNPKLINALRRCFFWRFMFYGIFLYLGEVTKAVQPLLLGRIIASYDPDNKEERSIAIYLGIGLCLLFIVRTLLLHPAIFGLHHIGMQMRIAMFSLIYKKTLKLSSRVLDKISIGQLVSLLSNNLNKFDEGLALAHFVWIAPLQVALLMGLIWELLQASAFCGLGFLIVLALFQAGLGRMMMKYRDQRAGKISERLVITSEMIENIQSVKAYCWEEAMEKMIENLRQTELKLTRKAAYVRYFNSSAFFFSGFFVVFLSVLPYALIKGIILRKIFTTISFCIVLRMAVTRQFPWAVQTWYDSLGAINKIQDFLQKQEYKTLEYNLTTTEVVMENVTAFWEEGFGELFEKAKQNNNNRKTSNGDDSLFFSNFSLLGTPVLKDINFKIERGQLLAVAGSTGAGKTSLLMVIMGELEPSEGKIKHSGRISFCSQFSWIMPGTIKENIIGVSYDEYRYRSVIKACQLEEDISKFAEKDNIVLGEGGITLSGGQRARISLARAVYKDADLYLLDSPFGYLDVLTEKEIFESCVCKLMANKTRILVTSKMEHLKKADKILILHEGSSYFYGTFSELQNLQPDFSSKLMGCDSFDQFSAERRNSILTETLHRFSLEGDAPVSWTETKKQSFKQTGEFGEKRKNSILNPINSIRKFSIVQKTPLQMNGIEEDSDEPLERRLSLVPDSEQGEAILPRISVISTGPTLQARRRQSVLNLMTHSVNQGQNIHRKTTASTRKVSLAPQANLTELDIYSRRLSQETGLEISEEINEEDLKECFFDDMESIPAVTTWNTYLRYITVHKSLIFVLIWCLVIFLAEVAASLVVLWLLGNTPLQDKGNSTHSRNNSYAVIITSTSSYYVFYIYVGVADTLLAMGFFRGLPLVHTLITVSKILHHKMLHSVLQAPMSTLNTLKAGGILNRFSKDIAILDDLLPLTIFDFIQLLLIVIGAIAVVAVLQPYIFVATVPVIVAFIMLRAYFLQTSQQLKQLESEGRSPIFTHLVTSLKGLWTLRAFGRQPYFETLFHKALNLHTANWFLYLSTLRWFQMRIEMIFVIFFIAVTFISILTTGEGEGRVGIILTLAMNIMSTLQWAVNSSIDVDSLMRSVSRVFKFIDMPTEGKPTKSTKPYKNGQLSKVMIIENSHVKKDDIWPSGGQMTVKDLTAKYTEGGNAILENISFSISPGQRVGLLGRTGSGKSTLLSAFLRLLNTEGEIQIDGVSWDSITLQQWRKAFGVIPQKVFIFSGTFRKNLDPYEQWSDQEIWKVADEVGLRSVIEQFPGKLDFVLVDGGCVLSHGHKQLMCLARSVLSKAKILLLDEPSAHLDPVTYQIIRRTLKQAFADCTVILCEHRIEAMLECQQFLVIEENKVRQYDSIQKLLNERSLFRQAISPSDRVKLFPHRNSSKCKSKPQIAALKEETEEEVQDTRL

| EC50 [1] [nM] | EC50 [2] [nM] | Maximum % activity (with co-corrector) [3] | Emax (CSE-HRP, without co-corrector) [%] | Emax [4] [%] | EC50 [5] [nM] | EC50 [6] [nM] | Maximum % activity (with co-corrector) (with co-corrector (2 μM)) | Maximum % activity (with co-corrector) (with co-corrector (2 μM of 3-[(2R,4R)-4-({[1-(2,2-difluoro-1,3-benzodioxol-5-yl)cyclopropyl]carbonyl}amino)-7-methoxy-3,4-dihydro-2H-chromen-2-yl]benzoic acid)) | Emax (without co-corrector) [%] | Compound |
| --- | --- | --- | --- | --- | --- | --- | --- | --- | --- | --- |
| 1000 to 10000 | 1000 to 10000 | +++ (≥350) | 100 to 200 |  |  |  |  |  |  | COc1ccc(C(F)(F)F)cc1CN[C@H]1[C@H](C(C)(C)C)[C@@H](C(=O)O)N(C(=O)[C@@H]2CCCCO2)[C@H]1c1cccc2c1OCC2 [Example I-299] |
|  |  |  |  | 100 to 200 | < 1000 | < 1000 | +++ (≥350) |  |  | COc1ncc(C(F)(F)F)cc1CN[C@H]1[C@H](C(C)(C)C)[C@@H](C(=O)O)N(C(=O)C2CC(C)CC(C)C2)[C@H]1c1ccccc1 (some centres unmarked) [III-201] |
|  |  |  |  | > 200 | 1000 to 10000 | < 1000 |  | +++ (≥350) |  | COc1ncc(Br)cc1CN[C@H]1[C@H](C(C)(C)C)[C@@H](C(=O)O)N(C(=O)[C@@H]2CCCO2)[C@H]1c1ccccc1C(C)C [II-594] |
| 1000 to 10000 | 1000 to 10000 | +++ (≥350) | > 200 |  |  |  |  |  |  | COc1ccc(C(C)(C)C)cc1CN[C@H]1[C@H](C(C)(C)C)[C@@H](C(=O)O)N(C(=O)C2CC(C)C2)[C@H]1c1ccccc1 (some centres unmarked) [II-306] |
| 1000 to 10000 | 1000 to 10000 | +++ (≥350) | 100 to 200 |  |  |  |  |  |  | COc1ccc(OC(F)F)cc1CN[C@H]1[C@H](C(C)(C)C)[C@@H](C(=O)O)N(C(=O)C2CCCCC2)[C@H]1c1ccccc1 [II-292] |
|  |  |  |  | < 100 | 1000 to 10000 | 1000 to 10000 | ++ (≥150 and <350) |  |  | COc1ccc(C(F)(F)F)c(CN[C@@H]2[C@@H](C(C)(C)C)[C@H](C(=O)O)N(C(=O)C3CCCCC3)[C@@H]2c2ccccc2)c1 (racemic) [III-106] |
|  |  |  |  |  | 1000 to 10000 | 1000 to 10000 | +++ (≥350) |  | > 200 | COc1ccc(C(F)(F)F)cc1CN[C@H]1[C@H](C(C)(C)C)[C@@H](C(=O)O)N(C(=O)[C@@H](OC)c2ccccc2)[C@H]1c1ccccc1 [Example I-34] |

More lines, now with the values behind:

| Compound | EC50 [1] [nM] | EC50 [2] [nM] | Maximum % activity (with co-corrector) [3] | Emax (CSE-HRP, without co-corrector) [%] | Emax [4] [%] | EC50 [5] [nM] | EC50 [6] [nM] | Maximum % activity (with co-corrector) (with co-corrector (2 μM)) | Maximum % activity (with co-corrector) (with co-corrector (2 μM of 3-[(2R,4R)-4-({[1-(2,2-difluoro-1,3-benzodioxol-5-yl)cyclopropyl]carbonyl}amino)-7-methoxy-3,4-dihydro-2H-chromen-2-yl]benzoic acid)) | Emax (without co-corrector) [%] |
| --- | --- | --- | --- | --- | --- | --- | --- | --- | --- | --- |
| Cc1c(N[C@H]2[C@H](C(C)(C)C)[C@@H](C(=O)O)N(C(=O)C3CCCCC3)[C@H]2c2ccccc2)c(Cl)nc2ccc(F)cc12 [II-144] | 1000 to 10000 | 1000 to 10000 | +++ (≥350) | 100 to 200 |  |  |  |  |  |  |
| CC(C)(C)[C@H]1[C@H](NCc2ccccc2C(F)F)[C@H](c2ccccc2)N(C(=O)C2CCCCC2)[C@@H]1C(=O)O [III-139] |  |  |  |  | < 100 | < 1000 | < 1000 | ++ (≥150 and <350) |  |  |
| COc1ccc(Cl)cc1CN[C@H]1[C@H](C(C)(C)C)[C@@H](C(=O)O)N(C(=O)OC(C)C)[C@H]1c1ccccc1OC [II-137] | 1000 to 10000 | 1000 to 10000 | +++ (≥350) | 100 to 200 |  |  |  |  |  |  |
| COc1ccc(C(C)(C)C)cc1CN[C@H]1[C@H](C(C)(C)C)[C@@H](C(=O)O)N(C(=O)[C@H]2OCC[C@H]2c2ccccc2)[C@H]1c1ccccc1 (relative stereo) [Example I-179] |  |  |  |  |  | 1000 to 10000 | 1000 to 10000 | +++ (≥350) |  | 100 to 200 |
| COc1ccc(C(F)(F)F)cc1CN[C@@H]1[C@@H](C(C)(C)C)[C@H](C(=O)O)N(C(=O)[C@@H]2CCCO[C@@H]2C)[C@@H]1c1ccccc1 (racemic) [II-34] | 1000 to 10000 | 1000 to 10000 | +++ (≥350) | > 200 |  |  |  |  |  |  |
| COc1ccc(C(C)(C)C#N)cc1CN[C@H]1[C@H](C(C)(C)C)[C@@H](C(=O)O)N(C(=O)C2CCCCC2)[C@H]1c1ccccc1 [Example I-88] |  |  |  |  |  | 1000 to 10000 | 1000 to 10000 | +++ (≥350) |  | 100 to 200 |
| COc1ccc(C(F)(F)F)cc1CN[C@H]1[C@H](C(C)(C)C)[C@@H](C(=O)O)N(C(=O)[C@@H]2CCCO2)[C@H]1c1cccnc1C1CC1 [Example I-269] | 1000 to 10000 | 1000 to 10000 | +++ (≥350) | 100 to 200 |  |  |  |  |  |  |
